Experimental data reported in US9486475B2 (AMGEN RESEARCH (MUNICH) GMBH, priority 2013, dated 2016).

Assays:
[1] = system: neurological adverse effects caused by a CD3 binding domain; test: PPS co-treatment of patient 109-036 during Blinatumomab start and dose escalation: neurological adverse effects; format: in vivo, human
Protocol: (§1) Patient was then treated for 7 weeks at 60 μg/m^2/24 h of Blinatumomab.
(§2) 6× CHOP 12/02-04/03 • 2. Induction according to Dexa-BEAM Protocol 05/03 • 3. Autologous SCT 08/03 • Date of last prior treatment: 08/03 • Treatment start: 10.5.2010 • Major Involvement: • 1. Supraclavicular • 2. Mediastinal • 3. Mesenterial (small intestinal involvement?) • 4W CT: PR -63% • 8W CT: CRu:-79% • EOS: 30.7.2010

B cell malignancies = conditions: human, in vivo; cited from earlier work
follicular lymphoma = test: Blinatumomab treatment of patient 109-036 (follicular lymphoma): CT tumor response; format: in vivo, human; conditions: Blinatumomab 5 μg/m^2/24 h for 1 week, then 60 μg/m^2/24 h, with PPS
Protocol: as §1, §2
(FL: follicular lymphoma, SCT: stem cell therapy, PR: partial remission, Cru: complete remission (unconfirmed), EOS: end of study).

non-Hodgkin's lymphoma = conditions: cited from earlier work
[2] = continuous administration, non-Hodgkin's lymphoma patients

Row | Substance | Apraxia and aphasia ([1]; patient 109-036, low B:T cell ratio, PPS 100 mg i.v. bolus 3 h before treatment start and before dose increase (day 8), then 300 mg/24 h for 48 h, Blinatumomab 5 then 60 μg/m^2/24 h) | Tremor (remaining neurological adverse effect) ([1]; patient 109-036, PPS 100 mg i.v. bolus then 300 mg/24 h for 48 h, Blinatumomab escalation to 60 μg/m^2/24 h) | Patients with an early neurological reaction (B cell malignancies) | 4W CT: change (follicular lymphoma; 4 weeks) [%] | 8W CT: change (follicular lymphoma; 8 weeks) [%] | 8W CT: response category (follicular lymphoma; 8 weeks) | Dose level at which partial and complete tumor regressions were first observed (non-Hodgkin's lymphoma; [2]) [milligrams/m^2/d] | Effect on tumor cells in bone marrow and liver (non-Hodgkin's lymphoma; [2]) | Patients who experienced a tumor regression (non-Hodgkin's lymphoma; dose level of 0.06 milligrams/m^2/d) | Effect on lymphoma target cells in blood (non-Hodgkin's lymphoma; doses as low as 0.005 milligrams per square meter per day, continuous, four weeks) | Neurological reactions in the clinical trial (non-Hodgkin's lymphoma; human, in vivo)
1 | β-D-Xylan, (1-4), 2,3-bis(hydrogen sulphate) [PPS] | prevented | slight tremor | – | – | – | – | – | – | – | – | –
2 | Blinatumomab | – | – | 7 out of 22 | -63 | -79 | CRu | 0.015 | clearance of tumor cells from bone marrow and liver | all seven | elimination of lymphoma target cells in blood | neurological reactions have been found
